This is an account of results in ChEMBL document CHEMBL5506062, “Discovery and Optimization of N-Arylated Tetracyclic Dicarboximides That Target Primary Glioma Stem-like Cells” (J Med Chem, 2024).

As usually defined, the Cmax is the peak of the concentration-time curve. By Tmax is commonly meant the time at which the peak concentration occurs. By AUC(0-t) is commonly meant exposure summed from dosing to a finite time, without extrapolation to infinity. Read a high AUC(0-t) as high exposure. One may read the bioavailability as dose-corrected exposure relative to a reference, in per cent. Higher therefore signals good availability.

Common to all, as to assay type: ADME, organism-based
Data set [1] is described as follows: Cmax in female CD-1 mouse brain at 10 mg/kg, ip measured after 10 to 1440 mins by LC-MS/MS analysis.
Data set [2] in a line: Tmax in female CD-1 mouse brain at 10 mg/kg, ip measured after 10 to 1440 mins by LC-MS/MS analysis.
Data set [3] in a line: Tmax in female CD-1 mouse plasma at 10 mg/kg, ip measured after 10 to 1440 mins by LC-MS/MS analysis.
Data set [4] can be described thus: AUClast in female CD-1 mouse brain at 10 mg/kg, ip measured after 10 to 1440 mins by LC-MS/MS analysis. Particulars: in vivo.
Data set [5] is described as follows: Cmax in female CD-1 mouse plasma at 10 mg/kg, ip measured after 10 to 1440 mins by LC-MS/MS analysis.
Data set [6] is described as follows: Ratio of drug concentration in brain to plasma in female CD-1 mouse at 10 mg/kg, ip measured after 10 to 1440 mins by LC-MS/MS analysis. Particulars: brain and plasma, read-out: K(p,uu,brain).
Data set [7] in a line: AUClast in female CD-1 mouse plasma at 10 mg/kg, ip measured after 10 to 1440 mins by LC-MS/MS analysis.
Data set [8] in a line: Oral bioavailability in female CD-1 mouse brain at 20 mg/kg measured after 0 to 1440 mins by LC-MS/MS analysis.
Data set [9] can be described thus: AUClast in female CD-1 mouse plasma at 5 mg/kg, iv measured after 0 to 1440 mins by LC-MS/MS analysis.
The nature of data set [10]: Drug concentration in female CD-1 mouse plasma at 20 mg/kg, po measured at 30 mins by LC-MS/MS analysis.
Data set [11] is described as follows: Tmax in female CD-1 mouse brain at 20 mg/kg, po measured after 0 to 1440 mins by LC-MS/MS analysis.
Data set [12] in a line: Drug concentration in female CD-1 mouse liver at 20 mg/kg, po measured at 30 mins by LC-MS/MS analysis. Particulars: read-out: Ct.
Data set [13] can be described thus: Oral bioavailability in female CD-1 mouse plasma at 20 mg/kg measured after 0 to 1440 mins by LC-MS/MS analysis.
Data set [14] is described as follows: AUClast in female CD-1 mouse brain at 5 mg/kg, iv measured after 0 to 1440 mins by LC-MS/MS analysis. Particulars: in vivo.
Data set [15] is described as follows: Drug concentration in female CD-1 mouse brain at 20 mg/kg, po measured at 30 mins by LC-MS/MS analysis. Particulars: read-out: Ct.
Data set [16] in a line: Tmax in female CD-1 mouse plasma at 5 mg/kg, iv measured after 0 to 1440 mins by LC-MS/MS analysis.
Data set [17] can be described thus: Tmax in female CD-1 mouse brain at 5 mg/kg, iv measured after 0 to 1440 mins by LC-MS/MS analysis.
Data set [18] is described as follows: Cmax in female CD-1 mouse plasma at 5 mg/kg, iv measured after 0 to 1440 mins by LC-MS/MS analysis.
Data set [19] in a line: AUClast in female CD-1 mouse plasma at 20 mg/kg, po measured after 0 to 1440 mins by LC-MS/MS analysis.
A short description of data set [20]: Cmax in female CD-1 mouse brain at 20 mg/kg, po measured after 0 to 1440 mins by LC-MS/MS analysis.
Data set [21] in a line: Cmax in female CD-1 mouse plasma at 20 mg/kg, po measured after 0 to 1440 mins by LC-MS/MS analysis.
Data set [22] is described as follows: AUClast in female CD-1 mouse brain at 20 mg/kg, po measured after 0 to 1440 mins by LC-MS/MS analysis. Particulars: in vivo.
The nature of data set [23]: Cmax in female CD-1 mouse brain at 20 mg/kg, po measured at 90 mins by LC-MS/MS analysis.
The nature of data set [24]: Cmax in female CD-1 mouse brain at 5 mg/kg, iv measured after 0 to 1440 mins by LC-MS/MS analysis.
The nature of data set [25]: Tmax in female CD-1 mouse plasma at 20 mg/kg, po measured after 0 to 1440 mins by LC-MS/MS analysis.

Consider `COc1ccc(C(=O)C2CC2c2ccc(N3C(=O)[C@@H]4[C@@H]5C=C[C@@H]([C@H]6C[C@@H]56)[C@@H]4C3=O)c(F)c2)cc1Cl` (stereo partly specified), for which the figures for the Cmax in [1] and in [5] were 1110 ng/g and 1970 ng/mL, respectively. Also, the Tmax in data set [2] and in data set [3] was 30 min each time. The AUClast in data set [4] stood at 220405 ng·min/g. For the same compound, the Kp uu in [6] was 0.5. In data set [7], this compound gave an exposure AUC(0-t) of 7340 ng·h/mL.
Consider `O=C(COc1cnc(N2C(=O)[C@@H]3[C@@H]4C=C[C@@H]([C@H]5C[C@@H]45)[C@@H]3C2=O)nc1)c1ccc(Cl)c(Cl)c1`, for which the Cmax worked out at 978 ng/g in [1] and 3440 ng/mL in [5]. The Tmax was 30 min in data set [2] and 10 min in data set [3]. This compound registered an AUClast in data set [4] of 83823 ng·min/g. Besides, the Kp uu in data set [6] is 0.29. In data set [7], the AUC(0-t) was 4780 ng·h/mL.
Regarding `COc1ccc(C(=O)C2CC2c2ccc(N3C(=O)[C@@H]4[C@@H]5C=C[C@@H]([C@H]6C[C@@H]56)[C@@H]4C3=O)cc2)cc1` (stereo partly specified), the figures for the highest concentration (Cmax) in data set [1] and in [5] were 992 ng/g and 887 ng/mL, respectively. Also, the results for the Tmax in [2] and in data set [3] were 30 min and 10 min, respectively. The compound further yielded an AUClast in data set [4] of 294638 ng·min/g. For the same compound, the Kp uu in [6] was 1.13. This compound showed an AUC(0-t) in [7] of 4350 ng·h/mL.
For `O=C(COc1ccc(N2C(=O)[C@@H]3[C@@H]4C=C[C@@H]([C@H]5C[C@@H]45)[C@@H]3C2=O)cc1)c1cc(Cl)cc(Cl)c1`, the bioavailability in [8] was 58%; in data set [13] it was 39%. Besides, the AUC(0-t) in data set [9] is 14800 ng·h/mL; in data set [19], 23100 ng·h/mL; in data set [7], 4830 ng·h/mL. The concentration at 0.5 h worked out at 1430 ng/mL in data set [10], 11500 ng/g in [12] and 1160 ng/g in data set [15]. Further, the Cmax in data set [1] turned out to be 2530 ng/g; in data set [5], 1300 ng/mL; in [18], 12000 ng/mL; in [20], 2380 ng/g; in [21] it was 3400 ng/mL; in data set [24], 3260 ng/g. Besides, the Tmax is 90 min in data set [11]; 90 min in data set [2]; 30 min in data set [3]; 5 min in data set [16]; 5 min in data set [17]; 30 min in data set [25]. Besides, the AUClast in [14] was determined as 767638 ng·min/g; in data set [4], 720503 ng·min/g; in data set [22], 1774789 ng·min/g. Also, in data set [6], the Kp uu was determined as 2.49. In addition, in data set [23], the Cmax at […] stood at 2380 ng/g.
